# Measurements: patent publication US11014911B2, “CDK2 inhibitors” (Pfizer Inc., priority 2019, dated 2021)
# What was measured:
# [1] = biological target: CDK2/Cyclin E1 full length (Homo sapiens (Human), UniProt P24941); assay: CDK2/Cyclin E1 full length mobility shift assay; assay type: biochemical
# [2] = biological target: GSK3β (H350L) (Homo sapiens (Human), UniProt P49841); details: read-out: GSK3β Ki
# Sequence of GSK3β (H350L) (P49841 whole entry, stated change not applied): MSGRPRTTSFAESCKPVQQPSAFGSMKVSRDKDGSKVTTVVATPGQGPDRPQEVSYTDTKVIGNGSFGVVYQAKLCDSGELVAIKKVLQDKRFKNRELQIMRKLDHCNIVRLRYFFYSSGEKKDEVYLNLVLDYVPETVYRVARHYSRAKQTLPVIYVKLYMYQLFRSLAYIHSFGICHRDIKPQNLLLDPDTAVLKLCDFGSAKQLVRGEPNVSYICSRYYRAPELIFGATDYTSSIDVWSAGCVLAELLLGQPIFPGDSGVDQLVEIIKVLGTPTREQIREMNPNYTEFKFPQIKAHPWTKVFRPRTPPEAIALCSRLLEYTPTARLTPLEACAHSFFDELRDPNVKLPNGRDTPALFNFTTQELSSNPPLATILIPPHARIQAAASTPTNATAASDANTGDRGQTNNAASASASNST
# Method: The assay was initiated with the addition of ATP, following 15 minutes pre-incubation of enzyme and inhibitor at room temperature in the reaction mixture. The reaction was stopped after 30 minutes at room temperature by the addition of 50 μL of 80 mM EDTA.
SMILES,Ki [1] [nM],Ki [2] [nM]
"CCN(C)C(=O)O[C@@H]1CC[C@H](c2cc(NC(=O)Cc3cc(F)cc(F)c3)n[nH]2)C1 [Example 245, (1R,3S)-3-(3-{[(3,5-difluorophenyl)acetyl]amino}-1H-pyrazol-5-yl)cyclopentyl ethyl(methyl)carbamate]",0.53,19.2
"CCCNC(=O)O[C@H]1CC[C@@H](c2cc(NC(=O)Cc3cnc(OC)s3)n[nH]2)C1 [Example 189, (1S,3R)-3-(3-{[(2-methoxy-1,3-thiazol-5-yl)acetyl]amino}-1H-pyrazol-5-yl)cyclopentyl propylcarbamate]",0.38,11.4
"Cc1cnc(CC(=O)Nc2cc([C@H]3CC[C@@H](OC(=O)NC4(C)CC4)C3)[nH]n2)o1 [Example 5, (1R,3S)-3-(3-{[(5-methyl-1,3-oxazol-2-yl)acetyl]amino}-1H-pyrazol-5-yl)cyclopentyl (1-methylcyclopropyl)carbamate]",0.4,39.4
"O=C(Cc1cc(F)cc(F)c1)Nc1cc([C@H]2CC[C@@H](OC(=O)NCC(F)F)C2)[nH]n1 [Example 253, (1R,3S)-3-(3-{[(3,5-difluorophenyl)acetyl]amino}-1H-pyrazol-5-yl)cyclopentyl (2,2-difluoroethyl)carbamate]",1.26,28.8
"Cc1cnc(CC(=O)Nc2cc([C@H]3CC[C@@H](OC(=O)NC4(CC(F)(F)F)CC4)C3)[nH]n2)cn1 [Example 455, (1R,3S)-3-(3-{[(5-methylpyrazin-2-yl)acetyl]amino}-1H-pyrazol-5-yl)cyclopentyl [1-2,2,2-trifluoroethyl)cyclopropyl] carbamate]",0.47,21.3
"CC[C@H](C)NC(=O)O[C@@H]1CC[C@H](c2cc(NC(=O)Cc3cncc(OC)n3)n[nH]2)C1 [Example 348, (1R,3S)-3-(3-{[(6-methoxypyrazin-2-yl)acetyl]amino}-1H-pyrazol-5-yl)cyclopentyl (2S)-butan-2-ylcarbamate]",0.59,54.1
"Cc1cc(CC(=O)Nc2cc([C@H]3CC[C@@H](OC(=O)N4CCC[C@@H]4C)C3)[nH]n2)no1 [Example 634, (1R,3S)-3-(3-{[(5-methyl-1,2-oxazol-3-yl)acetyl]amino}-1H-pyrazol-5-yl)cyclopentyl (2S)-2-methylpyrrolidine-1-carboxylate]",0.99,14.4
C[C@H]1CCCN1C(=O)O[C@@H]1CC[C@H](c2cc(NC(=O)Cc3cnc4ncnn4c3)n[nH]2)C1 [Example 141],0.08,5.75
"CCCNC(=O)O[C@@H]1CC[C@H](c2cc(NC(=O)Cc3ccc(OC)cc3S(C)(=O)=O)n[nH]2)C1 [Example 212, (1R,3S)-3-[3-({[4-methoxy-2-(methylsulfonyl)phenyl]acetyl}amino)-1H-pyrazol-5-yl]cyclopentyl propylcarbamate]",0.67,77.2
CC[C@H](C)NC(=O)O[C@@H]1CC[C@H](c2cc(NC(=O)Cc3cnc(C)s3)n[nH]2)C1 [Example 33],0.17,26.4
"COCCn1nccc1C(=O)Nc1cc([C@H]2CC[C@@H](OC(=O)NC(C)(C)C)C2)[nH]n1 [Example 308, (1R,3S)-3-[3-({[1-(2-methoxyethyl)-1H-pyrazol-5-yl]carbonyl}amino)-1H-pyrazol-5-yl]cyclopentyl tert-butylcarbamate]",0.3,89.1
"CC[C@H](C)NC(=O)O[C@@H]1CC[C@H](c2cc(NC(=O)Cc3ncc(C)o3)n[nH]2)C1 [Example 333, (1R,3S)-3-(3-{[(5-methyl-1,3-oxazol-2-yl)acetyl]amino}-1H-pyrazol-5-yl)cyclopentyl (2S)-butan-2-ylcarbamate]",0.41,63.2
"CC[C@H](C)NC(=O)O[C@@H]1CC[C@H](c2cc(NC(=O)Cc3ncc(OC)s3)n[nH]2)C1 [Example 353, (1R,3S)-3-(3-{[(5-methoxy-1,3-thiazol-2-yl)acetyl]amino}-1H-pyrazol-5-yl)cyclopentyl (2S)-butan-2-ylcarbamate]",0.5,29.5
CC[C@H](C)NC(=O)O[C@@H]1CC[C@H](c2cc(NC(=O)Cc3cc(C)no3)n[nH]2)C1 [Example 32],0.36,35.7
"COc1ccc(CC(=O)Nc2cc([C@H]3CC[C@@H](OC(=O)NC4(C)CC4)C3)[nH]n2)nc1 [Example 433, (1R,3S)-3-(3-{[(5-methoxypyridin-2-yl)acetyl]amino}-1H-pyrazol-5-yl)cyclopentyl (1-methylcyclopropyl)carbamate]",0.5,17.1
"CCCNC(=O)O[C@@H]1CC[C@H](c2cc(NC(=O)Cc3cc(C)ccc3S(C)(=O)=O)n[nH]2)C1 [Example 206, (1R,3S)-3-[3-({[5-methyl-2-(methylsulfonyl)phenyl]acetyl}amino)-1H-pyrazol-5-yl]cyclopentyl propylcarbamate]",1.22,> 95.3
COc1cc(CC(=O)Nc2cc([C@H]3CC[C@@H](OC(=O)N[C@@H](C)CF)C3)[nH]n2)ccn1 [Example 100],0.43,41.7
"Cc1ncc(CC(=O)Nc2cc([C@H]3CC[C@@H](OC(=O)N[C@@H]4CCC[C@@H]4C)C3)[nH]n2)s1 [Example 463, (1R,3S)-3-(3-{[(2-methyl-1,3-thiazol-5-yl)acetyl]amino}-1H-pyrazol-5-yl)cyclopentyl [(1R,2S)-2-methylcyclopentyl]carbamate]",0.55,28.3
"C[C@H]1CCCN1C(=O)O[C@@H]1CC[C@H](c2cc(NC(=O)Cc3ccon3)n[nH]2)C1 [Example 628, (1R,3S)-3-{3-[(1,2-oxazol-3-ylacetyl)amino]-1H-pyrazol-5-yl}cyclopentyl (2S)-2-methylpyrrolidine-1-carboxylate]",0.92,20.8
COc1cc(CC(=O)Nc2cc([C@H]3CC[C@@H](OC(=O)N[C@@H](C)[C@@H](C)F)C3)[nH]n2)ccn1 [Example 101],0.28,20.9

# Further compounds by falling Ki [1], results first:
Ki [1] [nM],Ki [2] [nM],SMILES
3,> 95.3,"CCCNC(=O)O[C@H]1CC[C@@H](c2cc(NC(=O)c3cn(C)nc3C)n[nH]2)C1 [Example 174, (1S,3R)-3-(3-{[(1,3-dimethyl-1H-pyrazol-4-yl)carbonyl]amino}-1H-pyrazol-5-yl)cyclopentyl propylcarbamate]"
1.4,33.9,"CCCNC(=O)O[C@@H]1CC[C@H](c2cc(NC(=O)Cc3cnco3)n[nH]2)C1 [Example 167, (1R,3S)-3-{3-[(1,3-oxazol-5-ylacetyl)amino]-1H-pyrazol-5-yl}cyclopentyl propylcarbamate]"
1.37,> 191,"CCCNC(=O)O[C@H]1CC[C@@H](c2cc(NC(=O)c3ccnc(C)c3)n[nH]2)C1 [Example 170, (1S,3R)-3-(3-{[(2-methylpyridin-4-yl)carbonyl]amino}-1H-pyrazol-5-yl)cyclopentyl propylcarbamate]"
1.24,4.07,"COc1ccc(CC(=O)Nc2cc([C@@H]3CC[C@H](OC(=O)N[C@H]4CC[C@](C)(O)CC4)C3)[nH]n2)cc1 [Example 565, (1S,3R)-3-(3-{[(4-methoxyphenyl)acetyl]amino}-1H-pyrazol-5-yl)cyclopentyl (trans-4-hydroxy-4-methylcyclohexyl)carbamate]"
1.13,14.7,"CCN(C)C(=O)O[C@@H]1CC[C@H](c2cc(NC(=O)Cc3ccc(F)cc3)n[nH]2)C1 [Example 238, (1R,3S)-3-(3-{[(4-fluorophenyl)acetyl]amino}-1H-pyrazol-5-yl)cyclopentyl ethyl(methyl)carbamate]"
0.67,148,"CC[C@H](C)NC(=O)O[C@@H]1CC[C@H](c2cc(NC(=O)c3ccnn3CCN(C)C)[nH]n2)C1 [Example 356, (1R,3S)-3-{5-[({1-[2-(dimethylamino)ethyl]-1H-pyrazol-5-yl}carbonyl)amino]-1H-pyrazol-3-yl}cyclopentyl (2S)-butan-2-ylcarbamate]"
0.47,6.34,"Cn1ccc(CC(=O)Nc2cc([C@H]3CC[C@@H](OC(=O)N4CCCC4(C)C)C3)[nH]n2)n1 [Example 639, (1R,35)-3-(3-{[(1-methyl-1H-pyrazol-3-yl)acetyl]amino}-1H-pyrazol-5-yl)cyclopentyl 2,2-dimethylpyrrolidine-1-carboxylate]"
0.45,8.01,"COc1cc(CC(=O)Nc2cc([C@H]3CC[C@@H](OC(=O)N4C[C@@H](O)[C@@H]4C)C3)[nH]n2)ccn1 [Example 612, (1R,3S)-3-(3-{[(2-methoxypyridin-4-yl)acetyl]amino}-1H-pyrazol-5-yl)cyclopentyl (2S,3R)-3-hydroxy-2-methylazetidine-1-carboxylate]"
0.39,123,"COc1ccc(S(C)(=O)=O)c(CC(=O)Nc2cc([C@H]3CC[C@@H](OC(=O)NC(C)(C)C)C3)[nH]n2)c1 [Example 319, (1R,3S)-3-[3-({[5-methoxy-2-(methylsulfonyl)phenyl]acetyl}amino)-1H-pyrazol-5-yl]cyclopentyl tert-butylcarbamate]"
0.35,3.29,"COc1ccc(CC(=O)Nc2cc([C@@H]3CC[C@H](OC(=O)N[C@H]4CC[C@@](C)(O)CC4)C3)[nH]n2)cn1 [Example 570, (1S,3R)-3-(3-{[(6-methoxypyridin-3-yl)acetyl]amino}-1H-pyrazol-5-yl)cyclopentyl (cis-4-hydroxy-4-methylcyclohexyl)carbamate]"
0.2,10.9,CC[C@H](C)NC(=O)O[C@@H]1CC[C@H](c2cc(NC(=O)Cc3cc(O)ncc3S(C)(=O)=O)n[nH]2)C1 [Example 52]
0.19,27.1,Cc1cc(CC(=O)Nc2cc([C@H]3CC[C@@H](OC(=O)NC(C)(C)C)C3)[nH]n2)on1 [Example 107]
0.15,40.2,Cn1cc(CC(=O)Nc2cc([C@H]3CC[C@@H](OC(=O)NC(C)(C)C)C3)[nH]n2)cn1 [Example 112]
0.14,15.9,CC1(NC(=O)O[C@@H]2CC[C@H](c3cc(NC(=O)Cc4ccno4)n[nH]3)C2)CCCC1 [Example 117]
0.13,19.3,Cn1cc(CC(=O)Nc2cc([C@H]3CC[C@@H](OC(=O)NC4(C)CCC4)C3)[nH]n2)cn1 [Example 119]
